Experimental findings from patent EP4001271A1, “CRYSTALLINE FORM OF 2-CHLORO-N-CYCLOPROPYL-5-[1-[2,6-DICHLORO-4-[1,2,2,2-TETRAFLUORO-1- (TRIFLUOROMETHYL)ETHYL]PHENYL]PYRAZOL-4-YL]-N-METHYL-PYRIDINE-3-CARBOXAMIDE” (Bayer Aktiengesellschaft, priority 2020, dated 2022) are described below.

Like-named read-outs stand apart in the source and are kept apart here.

What all share (assay type): physicochemical
The nature of series [1]: Storage experiment, influence of temperature on stability of crystalline form A (HPLC purity, XRD form). The following applies: for Purity / remaining at 672 h / remaining at 2016 h / remaining at 4032 h: HPLC, 1 mg/2mL ACN; for remaining at 672 h / remaining at 2016 h / remaining at 4032 h: solid storage. As to the method:
(§1) For Powder X-Ray Diffraction (XRD) the samples were placed into standard glass capillaries (∅ = 0.7 mm). The measurements were performed at room temperature with a D8 Bruker Advance Diffractometer (Cu-Kα1 = 1.5406 Å, Johansson primary beam monochromator, position sensitive detector) in transmission mode with rotation of the sample. Data were collected in a two-theta range of 2 - 38°. The tube voltage and current were 40 kV and 40 mA, respectively. [table] [table] Storage experiments in different environments (25°C, 50°C, 25°C/85 % RH) were performed to investigate the influence of temperature and moisture on the stability of crystalline form A of the compound of formula (I). […] Two samples of crystalline form A were stored at 25°C and 50°C, respectively (see Table 7). The samples were analyzed after 0, 1, 3, and 6 months by DSC, TGA, spectroscopy, X-ray powder diffraction, and HPLC (measurements for chemical stability). […] Exemplarily, the HPLC results are disclosed in Table 7. Table 7. Influence of temperature after four, 12, and 24 weeks. Purity determined by HPLC. ACN denotes acetonitrile. *entry 16 of Table 6

Series [2] can be described thus: Storage experiment, influence of humidity on stability of crystalline form A (HPLC purity, XRD form). As to the method: as §1, with “25°C/approx. 85 % rel. humidity” for “25°C and 50°C, respectively”, “8).” for “7).”, “8.” for “7.”, “humidity 0, 1, 3” for “temperature after four, 12,”, “6 months.” for “24 weeks.”
Series [3] can be described thus: DVS water sorption study (hydrate formation). As to conditions: 0 to 90% RH and back in 10% increments. As to the method: The water sorption was determined using a DVS Resolution (London, UK) gravimetric sorption analyzer. The sample was dried at 0% relative humidity for 1000 minutes, after which the dry mass was recorded. Humidity was ramped in 10% increments to 90% RH and then back to 0% RH. The equilibrium criterion was set to a relative mass change of dm/dt=0.002%/minute.

Series [4] is described as follows: Quantitative solubility in solvents, stepwise solvent addition with visual check. The following applies: read-out: solubility (concentration in solvent). As to the method: The solubility of the active provided in Example 1 was further investigated in various solvents (entry 1 to 14 of Table 6). For the determination of the quantitative solubility, the respective solvent(-mixture) was added to approx. 40 mg of the solid, up to a maximum solvent addition of 2 mL in 50 - 200 µL steps. The vials were sealed between each addition of the solvent and the solubility was checked visually. […] Optically clear solutions were filtered via a so-called syringe prefilter and evaporated to dryness at different temperatures. Furthermore, cooling crystallizations were carried out. Undissolved substances were stirred for one week at room temperature in the respective anti-solvent. Table 5. Selection of solvents and anti-solvents
Based on the solvents and anti-solvents from Table 5, crystallization experiments, listed in Table 6, were carried out to obtain new solid forms of the active provided in Example 1. X-ray powder diffraction was used to assess whether a new phase has been formed.

In general, share remaining refers to the share of the starting amount still present when the sample was taken. Higher therefore signals less turnover. Turning to `CN(C(=O)c1cc(-c2cnn(-c3c(Cl)cc(C(F)(C(F)(F)F)C(F)(F)F)cc3Cl)c2)cnc1Cl)C1CC1` [crystalline form A, 2-chloro-N-cyclopropyl-5-[1-[2,6-dichloro-4-[1,2,2,2-tetrafluoro-1-(trifluoromethyl)ethyl]phenyl]pyrazol-4-yl]-N-methyl-pyridine-3-carboxamide], the “phase transition on storage” value in series [1] (25°C and 50°C, after twelve weeks) is “no phase transition”; in series [2] (25°C/85 % RH, after twelve weeks), “no phase transition”. The “change in DSC, TGA, spectroscopy, X-ray powder diffraction and HPLC measurements on storage” value is reported as “did not result in a significant change” in series [1] (25°C and 50°C, after 0, 1, 3 and 6 months); “did not result in a significant change” in series [2] (25°C/approx. 85 % rel. humidity, after 0, 1, 3 and 6 months). Further, the Purity came to 99.09% in series [1] (25 °C, 4 weeks, 40320 min, listed as 16*); 99.23% in series [1] (25 °C, 12 weeks, 120960 min, listed as 16*); 99.25% in series [1] (50 °C, 12 weeks, 120960 min, listed as 16*); 99.34% in series [1] (50 °C, 24 weeks, 241920 min, listed as 16*); 99.54% in series [1] (no storage (initial value)); 99.10% in series [2] (25 °C, 85% RH, 4 weeks, HPLC, 1 mg/2mL ACN, 40320 min, listed as 16*). The Purity in series [2] (25 °C, 85% RH, 12 weeks, HPLC, 1 mg/2mL ACN, 120960 min, listed as 16*) is on record as 99.25%; in series [2] (25 °C, 85% RH, 24 weeks, HPLC, 1 mg/2mL ACN, 241920 min, listed as 16*) it was 99.75%; in series [2] (no storage (initial value), HPLC, 1 mg/2mL ACN) it was 99.54%. The share remaining at 672 h in series [1] (25 °C, 4 weeks) was found to be 98.3%; in series [1] (50 °C, 4 weeks) it was 99.1%; in series [2] (solid storage, 85% rh, 25 °C, 4 weeks, HPLC, 1 mg/2mL ACN), 99%. In addition, the amount remaining at 2016 h in series [1] (25 °C, 12 weeks) came out at 99.3%; in series [1] (50 °C, 12 weeks) it was 99.5%; in series [2] (solid storage, 85% rh, 25 °C, 12 weeks, HPLC, 1 mg/2mL ACN) it was 99.3%. Besides, the fraction remaining at 4032 h in series [1] (25 °C, 24 weeks) is 99.4%; in series [1] (50 °C, 24 weeks) it was 99.4%; in series [2] (solid storage, 85% rh, 25 °C, 24 weeks, HPLC, 1 mg/2mL ACN), 99.4%. In series [3], the hydrate formation result is listed as “does not form hydrates”. The hygroscopicity result in series [3] is given as “not hygroscopic”. Moreover, in series [3], the “mass increase over the entire area” value was “negligibly small”.
On to `CN(C(=O)c1cc(-c2cnn(-c3c(Cl)cc(C(F)(C(F)(F)F)C(F)(F)F)cc3Cl)c2)cnc1Cl)C1CC1` [compound of formula (I), 2-Chloro-N-cyclopropyl-5-[1-[2,6-dichloro-4-[1,2,2,2-tetrafluoro-1-(trifluoromethyl)ethyl]phenyl]pyrazol-4-yl]-N-methyl-pyridine-3-carboxamide], for which the solubility in series [4] (3-methyl-1-butanol, organic solvent or mixture, 3-methyl-1-butanol, entry 9, evaporation 50°C) worked out at 21 mg/mL; in series [4] (acetonitrile, organic solvent or mixture, acetonitrile, entry 14, evaporation at ambient conditions), 30 mg/mL; in series [4] (cyclohexane, organic solvent or mixture, cyclohexane (anti-solvent, not completely dissolved), entry 8, slurry 1 week) it was 19 mg/mL; in series [4] (ethanol, organic solvent or mixture, EtOH, entry 5, evaporation at ambient conditions), 25 mg/mL; in series [4] (heptane, organic solvent or mixture, heptane (anti-solvent, not completely dissolved), entry 7, slurry 1 week), 19 mg/mL; in series [4] (isopropyl alcohol, organic solvent or mixture, isopropyl alcohol, entry 1, clear solution, evaporation at ambient conditions), 17 mg/mL. Besides, the solubility in series [4] (isopropyl alcohol/propylene carbonate 65:35, organic solvent or mixture, isopropyl alcohol/propylene carbonate 65:35 %w/w, entry 3, slurry 1 week) was found to be 268 mg/mL; in series [4] (isopropyl alcohol/propylene carbonate 65:35, organic solvent or mixture, isopropyl alcohol/propylene carbonate 65:35 %w/w, entry 4, evaporation 50°C), 93 mg/mL; in series [4] (propylene carbonate, organic solvent or mixture, propylene carbonate, entry 2, slurry 1 week), 276 mg/mL; in series [4] (water, H2O (anti-solvent, not completely dissolved), entry 6, slurry 1 week) it was 19 mg/mL.
